Assay results taken from patent publication US20100196343A1, “COMPOSITIONS, METHODS, DEVICES, AND SYSTEMS FOR SKIN CARE” (priority 2008, published 2010).

System: skin blemishes
Experiment: clinical trial: blue light, white light or 4% BPO composition, number of skin blemishes
Assay type: in vivo
Conditions: subjects (n=55 in trial)
Text: In another clinical trial, subjects (n=55) were exposed to (a) blue light], (b) white light, or (c) a composition comprising 4% (w/w) benzyol peroxide (BPO). Subjects were re-evaluated weekly during each treatment regime and results are illustrated in FIG. 25. The number of skin blemishes observed on subjects who received blue light therapy dropped by over 35% in the first week and by 55% in the second week. By comparison, the number of skin blemishes observe on subjects who received BPO dropped by just over 20% by the second week and by only 45% after eleven weeks.

O=C(OOC(=O)c1ccccc1)c1ccccc1 [BPO, benzyol peroxide]
number of skin blemishes dropped (after eleven weeks): 45%
number of skin blemishes dropped (by the second week): over 20%
